Test [1] concerns the target T1, human EP1 receptor (Homo sapiens, UniProt P34995).
T1 sequence (P34995 1-402): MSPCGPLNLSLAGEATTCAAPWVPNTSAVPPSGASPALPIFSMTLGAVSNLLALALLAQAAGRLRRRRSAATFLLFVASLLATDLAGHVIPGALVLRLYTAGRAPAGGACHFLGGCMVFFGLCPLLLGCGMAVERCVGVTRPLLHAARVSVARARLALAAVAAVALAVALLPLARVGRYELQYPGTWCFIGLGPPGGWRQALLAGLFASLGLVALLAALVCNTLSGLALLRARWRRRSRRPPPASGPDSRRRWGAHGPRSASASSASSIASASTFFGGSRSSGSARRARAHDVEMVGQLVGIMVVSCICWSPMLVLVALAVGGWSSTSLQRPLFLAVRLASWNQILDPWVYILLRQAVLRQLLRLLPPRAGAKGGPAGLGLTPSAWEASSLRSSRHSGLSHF
Briefly: human EP1 calcium mobilisation assay. More on the design: expressed in transfected cells. Conditions: CHO-K1 cells, antagonism of PGE2; averages of a number of experiments; read-out: functional pKi value (human EP1 calcium mobilisation assay) (converted). In kind it is cell-based. In outline:
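CHO-K1 cells stably transfected with human EP1 or EP3, loaded with Fluo-4 after 24 h culture, treated with compound, then challenged with PGE2. Calcium-driven fluorescence read on FLIPR; pIC50 is half-maximal inhibition of PGE2-induced calcium mobilisation, from curve fitting.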
(In general: Calcium flux is commonly read through the fluorescence of an indicator in the cells.)

The target of test [2] is T2, human EP3 receptor (Homo sapiens, UniProt P43115).
T2 construct: expressed in transfected cells; host or cells: CHO-K1
T2 sequence (P43115 1-390): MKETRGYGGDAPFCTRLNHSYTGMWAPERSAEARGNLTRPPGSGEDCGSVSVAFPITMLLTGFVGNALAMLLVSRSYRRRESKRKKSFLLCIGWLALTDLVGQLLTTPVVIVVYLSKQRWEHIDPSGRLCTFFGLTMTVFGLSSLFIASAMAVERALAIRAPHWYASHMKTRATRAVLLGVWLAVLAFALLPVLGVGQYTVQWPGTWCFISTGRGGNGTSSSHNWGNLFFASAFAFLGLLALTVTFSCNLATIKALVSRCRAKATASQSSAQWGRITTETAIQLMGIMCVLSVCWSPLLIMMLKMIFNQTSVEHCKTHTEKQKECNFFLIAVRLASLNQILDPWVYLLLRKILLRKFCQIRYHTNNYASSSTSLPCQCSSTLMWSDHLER
Briefly: human EP3 calcium mobilisation assay. The settings on record: CHO-K1 cells, antagonism of PGE2; averages of a number of experiments; read-out: functional pKi value (human EP3 calcium mobilisation assay) (converted). In kind it is cell-based. The method, then:
Briefly, the antagonist properties of compounds are assessed by their ability to inhibit the mobilisation of intracellular calcium ([Ca^2+]i) in response to activation of EP1 or EP3 receptors by the natural agonist hormone prostaglandin E2 (PGE2). Increasing concentrations of antagonist reduce the amount of calcium that a given concentration of PGE2 can mobilise. The net effect is to displace the PGE2 concentration-effect curve to higher concentrations of PGE2. The amount of calcium produced is assessed using a calcium-sensitive fluorescent dye such as Fluo-4, AM and a suitable instrument such as a Fluorimetric Imaging Plate Reader (FLIPR). Increasing amounts of [Ca^2+]i produced by receptor activation increase the amount of fluorescence produced by the dye and give rise to an increasing signal. The signal may be detected using the FLIPR instrument and the data generated may be analysed with suitable curve-fitting software.
The human EP1 or EP3 calcium mobilisation assay (hereafter referred to as ‘the calcium assay’) utilises Chinese hamster ovary-K1 (CHO-K1) cells into which a stable (PCIN; BioTechniques 20 (1996): 102-110) vector containing either EP1 or EP3 cDNA has previously been transfected. Cells are cultured in suitable flasks containing culture medium such as DMEM:F-12 supplemented with 10% v/v foetal calf serum, 2 mM L-glutamine, 0.25 mg/ml geneticin, 100 μM flurbiprofen and 10 μg/ml puromycin.
For assay, cells are harvested using a proprietary reagent that dislodges cells such as Versene. Cells are re-suspended in a suitable quantity of fresh culture media for introduction into a 384-well plate. Following incubation for 24 hours at 37° C. the culture media is replaced with a medium containing Fluo-4 and the detergent pluronic acid, and a further incubation takes place. Concentrations of compounds are then added to the plate in order to construct concentration-effect curves. This may be performed on the FLIPR in order to assess the agonist properties of the compounds. Concentrations of PGE2 are then added to the plate in order to assess the antagonist properties of the compounds.
The data so generated may be analysed by means of a computerised curve-fitting routine. The concentration of compound that elicits a half-maximal inhibition of the calcium mobilisation induced by PGE2 (pIC50) may then be estimated.

The target in test [3] is T1, human EP1 receptor. Briefly: Binding assay for the human prostanoid EP1 receptor (radioligand competition). The settings on record: CHO-K1 membranes; [3H]-PGE2 for Examples 1-17, 19, 33, 34, 60 and 61, 3-{2-[5-Bromo-2-(2,4-difluorobenzyloxy)-phenyl]-5-methyl-pyrrol-1-yl}-6-[3H3-methoxy]methoxy-benzoic acid for the remaining; averages of a number of experiments; read-out: pIC50 value (binding assay for the human prostanoid EP1 receptor) (converted). More on the design: expressed in transfected cells; host or cells: CHO-K1 (membranes). As for the experimental part:
Compound potencies are determined using a radioligand binding assay. In this assay compound potencies are determined from their ability to compete with tritiated prostaglandin E2 ([^3H]-PGE2) for binding to the human EP1 receptor.
This assay utilises Chinese hamster ovary-K1 (CHO-K1) cells into which a stable vector containing the EP1 cDNA has previously been transfected. Cells are cultured in suitable flasks containing culture medium such as DMEM:F-12 supplemented with 10% v/v foetal calf serum, 2 mM L-glutamine, 0.25 mg/ml geneticin, 10 μg/ml puromycin and 10 μM indomethacin.
Cells are detached from the culture flasks by incubation in calcium and magnesium free phosphate buffered saline containing 1 mM disodium ethylenediaminetetraacetic acid (Na2EDTA) and […] indomethacin for 5 min. The cells are isolated by centrifugation at 250×g for 5mins and suspended in an ice cold buffer such as 50 mM Tris, 1 mM Na2EDTA, 140 mM NaCl, 10 μM indomethacin (pH 7.4). The cells are homogenised using a Polytron tissue disrupter (2×10 s burst at full setting), centrifuged at 48,000×g for 20mins and the pellet containing the membrane fraction is washed (optional) three times by suspension and centrifugation at 48,000×g for 20mins. The final membrane pellet is suspended in an assay buffer such as 10 mM 2-[N-morpholino]ethanesulphonic acid, 1 mM Na2EDTA, 10 mM MgCl2 (pH 6). Aliquots are frozen at −80° C. until required.
For the binding assay the cell membranes, competing compounds and [^3H]-PGE2 (3 nM final assay concentration) are incubated in a final volume of 100 μl for 30 min at 30° C. All reagents are prepared in assay buffer. Reactions are terminated by rapid vacuum filtration over GF/B filters using a Brandell cell harvester. The filters are washed with ice cold assay buffer, dried and the radioactivity retained on the filters is measured by liquid scintillation counting in Packard TopCount scintillation counter.
The data are analysed using non linear curve fitting techniques to determine the concentration of compound producing 50% inhibition of specific binding (IC50).
Alternatively a similar assay may be carried out using 3-{2-[5-Bromo-2-(2,4-difluoro-benzyloxy)-phenyl]-5-methyl-pyrrol-1-yl}-6-[^3H3-methoxy]methoxy-benzoic acid instead of [^3H]-PGE2.
For the binding assay using 3-{2-[5-Bromo-2-(2,4-difluoro-benzyloxy)-phenyl]-5-methyl-pyrrol-1-yl}-6-[^3H3-methoxy]methoxy-benzoic acid instead of [^3H]-PGE2 the assay is carried out using a similar procedure to that described above using [^3H]-PGE2 with the following changes:
The cell membranes, competing compounds and 3-{2-[5-Bromo-2-(2,4-difluoro-benzyloxy)-phenyl]-5-methyl-pyrrol-1-yl}-6-[^3H3-methoxy]methoxy-benzoic acid (0.2 nM final assay concentration) are incubated in a final volume of 400 μl for 45 min at 37° C. All reagents are prepared in assay buffer. Reactions are terminated by rapid vacuum filtration over GF/B filters using a Brandell cell harvester. The filters are washed with water at ambient temperature, dried and the radioactivity retained on the filters is measured by liquid scintillation counting in Packard TopCount scintillation counter.
The preparation of 3-{2-[5-Bromo-2-(2,4-difluoro-benzyloxy)-phenyl]-5-methyl-pyrrol-1-yl}-6-methoxy-benzoic acid is described in WO 03/101959 and in Hall et al, Biorg. Med. Chem. Lett., 2007, 17, 916-920. The tritiated version may be prepared via conventional routes, e.g. from 3-{2-[5-bromo-2-(2,4-difluoro-benzyloxy)-phenyl]-5-methyl-pyrrol-1-yl}-6-hydroxy-benzoic acid or 3-{2-[5-bromo-2-(2,4-difluoro-benzyloxy)-phenyl]-5-methyl-pyrrol-1-yl}-6-hydroxy-benzoic acid methyl ester.
A general note: In a radioligand displacement assay an active substance lowers the binding of a labelled ligand.

Molecules are shown by their SMILES. Structures can show the parent of a compound that is named as a salt.

`CCCc1cc2cc(Cl)cc(Cn3nc(C(=O)O)cc3C)c2o1` [Example 21, 1-[(5-chloro-2-propyl-1-benzofuran-7-yl)methyl]-5-methyl-1H-pyrazole-3-carboxylic Acid]: the Ki in test [1] is at most 316 nM; in test [2] it was 501 to 10000 nM. For the same compound, the IC50 in test [3] was at most 100 nM.

On to `Cc1cc(C(=O)O)nn1Cc1cc(S(C)(=O)=O)cc2cc(C(C)C)oc12` [Example 22, 5-methyl-1-{[2-(1-methylethyl)-5-(methylsulfonyl)-1-benzofuran-7-yl]methyl}-1H-pyrazole-3-carboxylic Acid], for which the Ki is at most 316 nM in test [1] and 501 to 10000 nM in test [2]. Besides, in test [3], the IC50 is at most 100 nM.

For the compound `Cc1cc(C(=O)O)nn1Cc1cc(Cl)cc2cc(C3CCCCC3)oc12` [Example 26, 1-[(5-Chloro-2-cyclohexyl-1-benzofuran-7-yl)methyl]-5-methyl-1H-pyrazole-3-carboxylic Acid], the Ki is at most 316 nM in test [1] and 501 to 10000 nM in test [2]. Also, the IC50 in test [3] is at most 100 nM.

Regarding `CC(C)c1cc2cc(Cl)cc(Cc3cccc(C(=O)NN4CCOCC4)n3)c2o1` [Example 44, 6-{[5-Chloro-2-(1-methylethyl)-1-benzofuran-7-yl]methyl}-N-4-morpholinyl-2-pyridinecarboxammide], the Ki in test [1] is at most 316 nM; in test [2], 501 to 10000 nM. Moreover, the IC50 in test [3] is at most 100 nM.

Take `Cc1cc(C(=O)Nc2ccc(CN3CCCC3)cc2)nn1Cc1cc(Br)cc2cc(C(C)C)oc12` [Example 51, 1-{[5-Bromo-2-(1-methylethyl)-1-benzofuran-7-yl]methyl}-5-methyl-N-[4-(1-pyrrolidinylmethyl)phenyl]-1H-pyrazole-3-carboxamidehydrochloride]: the Ki in test [1] is at most 316 nM; in test [2] it was 501 to 10000 nM. The IC50 in test [3] was at most 100 nM.

For `CC(C)c1cc2cc(Cl)cc(Cc3ccc(C(=O)Nc4ccc(CN5CCCC5)cc4)o3)c2o1` [Example 53, 5-{[5-Chloro-2-(1-methylethyl)-1-benzofuran-7-yl]methyl}-N-[4-(1-pyrrolidinylmethyl)phenyl]-2-furancarboxamide], the figures for the Ki in test [1] and in test [2] were at most 316 nM and 501 to 10000 nM, respectively. Also, in test [3], the IC50 is at most 100 nM.

As to `CC(C)c1cc2cc(Cl)cc(Cc3ccc(C(=O)Nc4ccc(CN5CCC(O)CC5)cc4)o3)c2o1` [Example 55, 5-{[5-Chloro-2-(1-methylethyl)-1-benzofuran-7-yl]methyl}-N-{4-[(4-hydroxy-1-piperidinyl)methyl]phenyl}-2-furancarboxamide Hydrochloride], the Ki is at most 316 nM in test [1] and 501 to 10000 nM in test [2]. In test [3], the IC50 was at most 100 nM.

Regarding `CCNCc1ccc(NC(=O)c2ccc(Cc3cc(Cl)cc4cc(C(C)C)oc34)o2)cc1` [Example 56, 5-{[5-Chloro-2-(1-methylethyl)-1-benzofuran-7-yl]methyl}-N-{4-[(ethylamino)methyl]phenyl}-2-furancarboxamide Hydrochloride], the Ki in test [1] is at most 316 nM; in test [2], 501 to 10000 nM.

Regarding `Cc1cc(C(=O)Nc2ccc(CO)cc2)nn1Cc1cc(Br)cc2cc(C(C)C)oc12` [Example 71], the Ki is at most 316 nM in test [1] and 501 to 10000 nM in test [2]. In addition, the IC50 in test [3] was at most 100 nM.

As to `CC(C)c1cc2cc(Cl)cc(Cc3ccc(C(=O)Nc4ccc(CO)cc4)o3)c2o1` [Example 72, 5-{[5-Chloro-2-(1-methylethyl)-1-benzofuran-7-yl]methyl}-N-[4-(hydroxymethyl)phenyl]-2-furancarboxamide], the Ki in test [1] is at most 316 nM; in test [2], 501 to 10000 nM. In test [3], the IC50 is at most 100 nM.

Values taken from US20090099169A1, “Benzofuran Compounds As EP1 Receptor Antagonists” (GLAXO GROUP LIMITED, priority 2006, published 2009).
